Laboratory results from article PMC10945739, “Exploring Cassia mimosoïdes as a promising natural source of steroids with potent anti-cancer, urease inhibition, and antimicrobial properties” (RSC Advances, 2024).
In brackets after ≈: the same amount, converted by molar mass. Where two headings read alike, the source gives them in different places.

Legend:
Jack bean urease = Jack bean urease (Canavalia ensiformis, UniProt P07374); experiment: biochemical; assay type: biochemical; conditions: for inhibition at 500 µM: pH 6.8, read-out: % Inhibition of urease
Protocol: The inhibition potential of the isolated compounds against urease was investigated using a SpectraMax M2 reader using 96-well microplates.
The kinetic assay involved preparing varying concentrations of both the test compound and the substrate (urea), spanning 0 μM, 5 μM, 10 μM, 15 μM, and 20 μM. The resulting data was utilized to construct a Lineweaver–Burk plot.
In 96-well plates were incubated at 37 °C for 15 min, reaction mixtures consisting of 25 μL of test compounds (each 0.5 mM), 25 μL of enzyme solution (Jack bean urease) and 55 μL of buffers containing 20.79 mM urea. The indophenol method described by Weatherburn[21] was used to determine urease inhibitor activity by measuring ammonia production. Briefly, to each well were added 70 μL of alkaline reagent (0.5% w/v NaOH and 0.1% active chloride, NaOCl) and 45 μL of phenolic reagent (1% w/v phenol and 0.005% w/v sodium nitroprusside). The microplate reader (Molecular Devices, USA) was used to measure the increase in absorbance at 650 nm after 50 min. A final volume of 245 μL was required to perform all reactions in a triplicate. The results (absorbance change per minute) were processed using SoftMax Pro software (Molecular Devices, USA). All assays were performed at pH 6.8. Inhibition percentages were calculated from the formula% Inhibition = 100 − (Abs(sample)/Abs(control)) × 100where “A” is the absorbance of the “test well” as well as the “control”. Thiourea was used as a standard.

Alternaria alternata = experiment: Antifungal bioassay, poisoned medium technique; assay type: cell-based; conditions: 168 h, read-out: MIC values against Alternaria alternata
Protocol: (§1) Anti-microbial assays of the isolated componds were performed against the selected strain of fungi i.e., Alternaria alternata, Aspergillus fumigatus, Aspergillus niger, and Penicillium citrii.
(§2) Alternaria alternata, Aspergillus fumigatus, Aspergillus niger, and Penicillium citrii strains were obtained from the Biotechnology lab at COMSATS University Islamabad. The antifungal activity of isolated compounds was assessed using poisoned medium technique. Two percent malt extract agar medium was generated by autoclaving at 121 °C for 30 minutes. Weighed volumes of the compounds were dissolved in […] of sterilized distilled water and put to flasks containing 59.5 mL of malt extract agar medium while they were still molten to obtain final concentrations of 100, 300, 500, 700, 900, and 1000 ppm. The control received the same amount of distilled water. Each sterile Petri plate with a diameter of 90 mm was filled with 20 mL of each medium and allowed to solidify. 5 mm diameter mycelial discs were produced from the tips of 5–7 day-old cultures of the four test fungus species and put in the center of each Petri dish using a sterile cork borer. Every treatment was duplicated three times. Plates were cultured in an incubator at 25 ± 2 °C for seven days. To calculate the rate of fungal growth, the three diameters of each colony were measured at right angles and averaged. Table 2 MIC values (μM) of the isolated compounds against Alternaria alternata, Aspergillus fumigatus, Aspergillus niger, and Penicillium citrii strains.[19]

Aspergillus fumigatus = experiment: Antifungal bioassay, poisoned medium technique; assay type: cell-based; conditions: 168 h, read-out: MIC values against Aspergillus fumigatus
Protocol: as §1, §2

Aspergillus niger = experiment: Antifungal bioassay, poisoned medium technique; assay type: cell-based; conditions: 168 h, read-out: MIC values against Aspergillus niger
Protocol: as §1, §2

Penicillium citrii = experiment: Antifungal bioassay, poisoned medium technique; assay type: cell-based; conditions: 168 h, read-out: MIC values against Penicillium citrii
Protocol: as §1, §2

[1] = tested on: human HepG2 hepatic cancer cells; experiment: MTT cell viability assay; assay type: cell-based; conditions: Homo sapiens; for viability at 200 µg: HepG2, 48 h; for IC50: HepG2, calculated using Graph Pad Prism software, read-out: IC50 against HepG2
Protocol: The human liver cells were cultivated in Dulbecco's modified Eagle medium (DMEM) in which 100 U mL^−1 penicillin, 10% fetal bovine and […] streptomycin were added and kept at 37 °C in a […] carbon dioxide induced humidified environment. The human liver cells prepared as per above procedure were then treated with synthesized compounds diluted to 0.05% DMSO concentration.
Using MTT assay, the % viability of cancer cells 36 was evaluated. According to the standard procedure, HepG2 cells were treated with various dosages of synthesized compounds for 48 hours each. The cells were then incubated for 4 hours at 37 °C with 10μ MTT reagent (5 mg mL^−1). Next, in 150 μL DMSO was added to dissolve formazan crystals. The λmax was recorded at 409 nm in a microplate reader (thermos scientific).

[2] = poisoned medium, 25 ± 2 °C, seven days
[3] = HepG2, MTT, 48 hours, at 200 μg

Chain of Jack bean urease (P07374 whole entry, looked up): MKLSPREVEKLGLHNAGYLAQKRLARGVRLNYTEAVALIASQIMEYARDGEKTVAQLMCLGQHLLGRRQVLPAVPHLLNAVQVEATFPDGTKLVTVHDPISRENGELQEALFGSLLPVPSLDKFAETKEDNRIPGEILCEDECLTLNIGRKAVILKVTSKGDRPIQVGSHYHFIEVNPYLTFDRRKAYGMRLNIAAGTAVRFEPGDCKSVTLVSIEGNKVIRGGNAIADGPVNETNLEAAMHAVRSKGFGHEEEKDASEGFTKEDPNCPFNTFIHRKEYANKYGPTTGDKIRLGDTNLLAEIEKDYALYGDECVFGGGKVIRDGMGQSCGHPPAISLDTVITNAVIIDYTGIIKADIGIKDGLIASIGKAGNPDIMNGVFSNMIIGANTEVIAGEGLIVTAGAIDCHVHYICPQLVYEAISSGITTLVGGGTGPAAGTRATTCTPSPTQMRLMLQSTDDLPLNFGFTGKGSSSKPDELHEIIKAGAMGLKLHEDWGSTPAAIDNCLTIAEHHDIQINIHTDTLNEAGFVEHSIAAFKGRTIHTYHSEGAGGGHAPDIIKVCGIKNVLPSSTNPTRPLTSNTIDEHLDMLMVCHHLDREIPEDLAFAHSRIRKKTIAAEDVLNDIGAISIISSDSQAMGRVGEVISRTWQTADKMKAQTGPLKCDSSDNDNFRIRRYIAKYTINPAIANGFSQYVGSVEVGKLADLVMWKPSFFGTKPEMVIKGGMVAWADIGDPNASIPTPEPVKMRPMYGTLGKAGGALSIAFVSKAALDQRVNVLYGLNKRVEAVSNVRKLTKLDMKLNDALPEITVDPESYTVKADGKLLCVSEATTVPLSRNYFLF

Compound	IC50 (Jack bean urease) [µM]	inhibition at 500 µM (Jack bean urease) [%]	MIC (Alternaria alternata; [2]) [µM]	MIC (Aspergillus fumigatus; [2]) [µM]	MIC (Aspergillus niger; [2]) [µM]	MIC (Penicillium citrii; [2]) [µM]	other results
CCCCCCCCCCCCCCCCCCC(=O)O [Compound 14, Nonadecanoic acid]	1.95 ± 0.31	80.4	–	–	–	–	–
Cc1cc(O)c2c(c1)C(=O)c1cccc(O)c1C2=O [Chrysophanol]	–	–	0.012 ± 0.003 (≈ 3.05 ng/mL)	0.06 ± 0.001 (≈ 15.3 ng/mL)	0.03 ± 0.002 (≈ 7.63 ng/mL)	0.05 ± 0.001 (≈ 12.7 ng/mL)	–
COc1cc(O)cc2oc(-c3ccc(O)c(O)c3)cc(=O)c12 [Compound 4, Luteolin-5-methyl ether]	3.87 ± 0.24	82.7	–	–	–	–	viability at 200 µg [1, 3]: 90.5 ± 2.15%
CCC(CCC(C)C1CCC2C3CC(O)C4=CC(=O)CCC4(C)C3CCC12C)C(C)C (centres unmarked) [Synthesized compound]	–	69	–	–	–	–	IC50 (Jack bean urease; read-out: IC50 ± SEM, urease, pH 6.8): 8.03 ± 0.19 µM
O=c1cc(-c2ccc(O)cc2)oc2c([C@@H]3O[C@H](CO)[C@@H](O)[C@H](O)[C@H]3O)c(O)cc(O)c12 [Apigenin-8-C-β-D-glucopyranoside]	–	–	–	–	–	–	MIC (Alternaria alternata): 0.025 ± 0.007 µM (≈ 10.8 ng/mL); MIC (Aspergillus fumigatus): 0.01 ± 0.006 µM (≈ 4.32 ng/mL); MIC (Aspergillus niger): 0.015 ± 0.001 µM (≈ 6.49 ng/mL); MIC (Penicillium citrii): 0.01 ± 0.006 µM (≈ 4.32 ng/mL)
O=c1cc(-c2ccc(O)cc2)oc2c([C@@H]3O[C@H](CO)[C@@H](O)[C@H](O)[C@H]3O)c(O)cc(O)c12 [Compound 5, Apigenin-8-C-β-D-glucopyranoside]	4.73 ± 0.22	77.5	–	–	–	–	viability at 200 µg [1]: 94.7 ± 7.4%
CC[C@H](CC[C@@H](C)C1CCC2C3CC=C4C[C@@H](O[C@@H]5O[C@H](CO)[C@@H](O)[C@H](O)[C@H]5O)CC[C@]4(C)C3CC[C@@]21C)C(C)C (stereo partly drawn) [Compound 16, β-Sitosterol 3-O-β-D-glucopyranoside]	–	19.5	–	–	–	–	viability at 200 µg [1, 3]: 96.4 ± 2.2%
CC[C@H](CC[C@@H](C)[C@H]1CC[C@H]2[C@@H]3CC(=O)C4=CC(=O)CC[C@]4(C)[C@H]3CC[C@]12C)C(C)C [Compound 9, Stigmast-4-en-3,6-dione]	–	13.4	–	–	–	–	IC50 [1]: 7.8 µM
CC[C@H](CC[C@@H](C)[C@H]1CC[C@H]2[C@@H]3C[C@H](O)C4=C[C@@H](O)CC[C@]4(C)[C@H]3CC[C@]12C)C(C)C [Compound 10, Stigmast-4-en-3β,6α-diol]	6.68 ± 0.11	76.6	–	–	–	–	viability at 200 µg [1, 3]: 14.5 ± 0.68%; IC50 [1]: 7.8 µM
COc1cc(O)c2c(c1)C(=O)c1cc(C)cc(O)c1C2=O [Compound 13, Physcion]	6.24 ± 0.3	63.5	–	–	–	–	viability at 200 µg [1]: 87.4 ± 2.55%
COc1cc(O)c2c(c1)C(=O)c1cc(C)cc(O)c1C2=O [Physcion]	–	–	0.015 ± 0.005 (≈ 4.26 ng/mL)	0.035 ± 0.006 (≈ 9.95 ng/mL)	0.09 ± 0.009 (≈ 25.6 ng/mL)	0.03 ± 0.005 (≈ 8.53 ng/mL)	–
Cc1cc(O)c2c(c1)C(=O)c1cc(O)cc(O)c1C2=O [Emodin]	–	–	0.01 ± 0.006 (≈ 2.7 ng/mL)	0.035 ± 0.005 (≈ 9.46 ng/mL)	0.04 ± 0.003 (≈ 10.8 ng/mL)	0.045 ± 0.005 (≈ 12.2 ng/mL)	–
O=c1cc(-c2ccc(O)c(O)c2)oc2c([C@@H]3O[C@H](CO)[C@@H](O)[C@H](O)[C@H]3O)c(O)cc(O)c12 [Luteolin-8-C-β-D-glucopyranoside]	–	–	–	–	–	–	MIC (Alternaria alternata): 0.021 ± 0.005 µM (≈ 9.42 ng/mL); MIC (Aspergillus fumigatus): 0.014 ± 0.005 µM (≈ 6.28 ng/mL); MIC (Aspergillus niger): 0.013 ± 0.006 µM (≈ 5.83 ng/mL); MIC (Penicillium citrii): 0.015 ± 0.008 µM (≈ 6.73 ng/mL)
O=c1cc(-c2ccc(O)c(O)c2)oc2c([C@@H]3O[C@H](CO)[C@@H](O)[C@H](O)[C@H]3O)c(O)cc(O)c12 [Compound 6, Luteolin-8-C-β-D-glucopyranoside]	5.03 ± 0.12	71.5	–	–	–	–	viability at 200 µg [1, 3]: 89.2 ± 2.5%
CC[C@H](CC[C@@H](C)[C@H]1CC[C@H]2[C@@H]3CC=C4C[C@@H](O)CC[C@]4(C)[C@H]3CC[C@]12C)C(C)C [Compound 15, β-Sitosterol]	2.78 ± 0.24	80	–	–	–	–	viability at 200 µg [1]: 94.4 ± 4.42%
COc1cc(O)cc2oc(-c3ccc(O)c(O)c3)cc(=O)c12 [Luteolin-5-methyl ether]	–	–	0.03 ± 0.006 (≈ 9.01 ng/mL)	0.04 ± 0.002 (≈ 12 ng/mL)	0.01 ± 0.006 (≈ 3 ng/mL)	0.06 ± 0.004 (≈ 18 ng/mL)	–
NC(N)=S [thiourea, reference compound]	–	–	–	–	–	–	IC50 (Jack bean urease; pH 6.8, read-out: IC50 ± SEM, urease): 18.61 ± 0.11 µM; IC50 (Jack bean urease; read-out: IC50, urease (conclusions)): 18.61 ± 0.11 µM; % Inhibition of urease (Jack bean urease; test compounds each 0.5 mM, pH 6.8): 86.73%
O=c1cc(-c2ccc(O)c(O)c2)oc2cc(O)ccc12 [Compound 3, 3′,4′,7-Trihydroxyflavone]	–	–	0.056 ± 0.001 (≈ 15.1 ng/mL)	0.013 ± 0.003 (≈ 3.51 ng/mL)	0.032 ± 0.005 (≈ 8.65 ng/mL)	0.016 ± 0.01 (≈ 4.32 ng/mL)	–
Cc1cc(O)c2c(c1)C(=O)c1cccc(O)c1C2=O [Compound 12, Chrysophanol]	5.92 ± 0.25	78.2	–	–	–	–	viability at 200 µg [1, 3]: 59.3 ± 2.2%
O=c1cc(-c2ccc(O)c(O)c2)oc2cc(O)c([C@@H]3O[C@H](CO)[C@@H](O)[C@H](O)[C@H]3O)c(O)c12 [Luteolin-6-C-β-D-glucopyranoside]	–	–	0.06 ± 0.007 (≈ 26.9 ng/mL)	0.25 ± 0.003 (≈ 112 ng/mL)	0.0072 ± 0.0003 (≈ 3.23 ng/mL)	0.022 ± 0.003 (≈ 9.86 ng/mL)	–
O=c1cc(-c2ccc(O)c(O)c2)oc2cc(O)cc(O)c12 [Compound 2, Luteolin]	1.3 ± 0.28	82	0.043 ± 0.002 (≈ 12.3 ng/mL)	0.01 ± 0.004 (≈ 2.86 ng/mL)	0.021 ± 0.001 (≈ 6.01 ng/mL)	0.05 ± 0.002 (≈ 14.3 ng/mL)	viability at 200 µg [1, 3]: 82.5 ± 4.31%
CCC(CCC(C)C1CCC2C3CC(=O)C4=CC(=O)CCC4(C)C3CCC12C)C(C)C (centres unmarked) [Stigmast-4-en-3,6-dione]	–	–	0.15 ± 0.005 (≈ 64 ng/mL)	0.125 ± 0.0015 (≈ 53.3 ng/mL)	0.02 ± 0.006 (≈ 8.53 ng/mL)	0.04 ± 0.003 (≈ 17.1 ng/mL)	–
Cc1cc(O)c2c(c1)C(=O)c1cc(O)cc(O)c1C2=O [Compound 11, Emodin]	5.2 ± 0.14	72.9	–	–	–	–	viability at 200 µg [1, 3]: 83.89 ± 0.73%
CC[C@H](CC[C@@H](C)[C@H]1CC[C@H]2[C@@H]3C[C@H](O)C4=C[C@@H](O)CC[C@]4(C)[C@H]3CC[C@]12C)C(C)C [Stigmast-4-en-3β,6α-diol]	–	–	0.045 ± 0.003 (≈ 19.4 ng/mL)	0.01 ± 0.006 (≈ 4.31 ng/mL)	0.015 ± 0.005 (≈ 6.46 ng/mL)	0.2 ± 0.03 (≈ 86.1 ng/mL)	–
